Test results: US20210059977A1, “COMBINATION THERAPIES FOR THE TREATMENT OF AMYOTROPHIC LATERAL SCLEROSIS AND RELATED DISORDERS” (The General Hospital Corporation, priority 2018, published 2021)

Tests used:
[1] = Body weight of TgSOD1 mice; assay type: in vivo; settings: TgSOD1-Cromolyn vs TgSOD1-Vehicle
Experimental: Beginning at P50, weight and neurological score (using the ALS TDI criteria) (Hatzipetros, T., et al. (2015). “A Quick Phenotypic Neurological Scoring System for Evaluating Disease Progression in the SOD1-G93A Mouse Model of ALS.” J Vis Exp(104); Leitner M., et. al. (2009). “Working with ALS mice: Guidelines for preclinical testing & colony management.” The Jackson Laboratory) were recorded for each mouse every 5 days until death or euthanasia. ALS TDI criteria are as follows: • Score of 0: Full extension of hind legs away from lateral midline when mouse is suspended by its tail, and mouse can hold this for two seconds, suspended two to three times. • Score of 1: Collapse or partial collapse of leg extension towards lateral midline (weakness) or trembling of hind legs during tail suspension. • Score of 2: Toes curl under at least twice during walking of 12 inches, or any part of foot is dragging along cage bottom/table. • Score of 3: Rigid paralysis or minimal joint movement, foot not being used for generating forward motion. • Score of 4: Mouse cannot right itself within 15 seconds after being placed on either side. *Mice were euthanized upon obtaining a score of 4. […]

SOD1^G93A mouse model [2] = test: Rotarod; assay type: in vivo, mice; settings: TgSOD1-Cromolyn vs TgSOD1-Vehicle; 6.3 mg/kg i.p.
Experimental: Mice were placed on a fixed speed (16 rpm) rotating rod (3.0 cm) (Rotamex, Columbus Instruments) as previously described. Mice were trained to remain on the rotarod for 180 seconds once at P40. For each experimental time point (P70, P90, P110, P130, P150), the time mice spent on the rotating rod was calculated up to a maximum of 180 seconds. Three trials were performed for each time point and the greatest value for each session was used for analysis.
(§1) 149 male and female age- and litter-matched transgenic (Tg) SOD1^G93A and wild-type (Wt) SOD1^G93A mice were used with the following breakdown: Females (19 WtSOD1-Vehicle, 17 WtSOD1-Cromolyn, 19 TgSOD1-Vehicle, and 17 TgSOD1-Cromolyn) and Males (18 WtSOD1-Vehicle, 21 WtSOD1-Cromolyn, 21 TgSOD1-Vehicle, 17 TgSOD1-Cromolyn).

SOD1^G93A mouse model [3] = test: Age at paresis onset; assay type: in vivo, mice
Experimental: Beginning at P50, weight and neurological score (using the ALS TDI criteria) (Hatzipetros, T., et al. (2015). “A Quick Phenotypic Neurological Scoring System for Evaluating Disease Progression in the SOD1-G93A Mouse Model of ALS.” J Vis Exp(104); Leitner M., et. al. (2009). “Working with ALS mice: Guidelines for preclinical testing & colony management.” The Jackson Laboratory) were recorded for each mouse every 5 days until death or euthanasia. ALS TDI criteria are as follows: • Score of 0: Full extension of hind legs away from lateral midline when mouse is suspended by its tail, and mouse can hold this for two seconds, suspended two to three times. • Score of 1: Collapse or partial collapse of leg extension towards lateral midline (weakness) or trembling of hind legs during tail suspension. • Score of 2: Toes curl under at least twice during walking of 12 inches, or any part of foot is dragging along cage bottom/table. • Score of 3: Rigid paralysis or minimal joint movement, foot not being used for generating forward motion. • Score of 4: Mouse cannot right itself within 15 seconds after being placed on either side. *Mice were euthanized upon obtaining a score of 4.
as §1

SOD1^G93A mouse model [4] = test: Survival; assay type: in vivo, mice; settings: Mantel-Cox test
Experimental: 149 mice were used in this study. All animal care, husbandry and experimentation were performed according to the guidelines set by the Massachusetts General Hospital Subcommittee on Research Animal Care. These experiments were approved by the Massachusetts General Hospital Institutional Animal Care and Use Committee (2014N000018). All mice were given access to food and water ad libitum. Mice were assessed regularly for motor impairment and euthanized upon onset of major paralysis (neurological scoring=4, see Neurological Score below) to minimize suffering as described previously. […] The endpoint used in this study was based on previously reported criteria by ALS TDI, the loss of self-righting ability within 15 seconds (neurological score=4) or the inability to move to reach food on the cage floor. Mice that reached the humane endpoint were euthanized within 3 hours.
as §1

[5] = test system: lumbar spinal cord motor neurons; test: Motor neuron quantification (H&E); assay type: in vivo, mice; settings: TgSOD1-Cromolyn vs TgSOD1-Vehicle; p=0.0033
Experimental: Longitudinal sections (10 μm) of the lumbar spinal cord were cut from fresh frozen tissue. Hematoxylin and eosin (H&E) staining was performed on the tissue sections as previously described. Within the region containing the ventral horn, all motor neurons are counted for three individual sections per animal (each separated by […]) to cover the areas of highest motor neuron density within the ventral horn. All counting was performed by an individual blinded to the genotypes. Images were acquired using a Zeiss microscope 20× objective (0.8 NA) and processed with Metamorph image analysis software (Molecular Devices).
as §1

[6] = test system: Iba1-positive cell area in lumbar spinal cord; test: Iba1 immunohistochemical analysis (microgliosis); assay type: in vivo, mice; settings: TgSOD1-Cromolyn vs TgSOD1-Vehicle
Experimental: Frozen spinal cord sections were fixed in 4% PFA/PBS for 72 hours and dehydrated with 30% sucrose in PBS. Sections were washed three times (5 minutes each) with PBS and incubated with 3% H2O2 in PBS for 15 minutes to quench endogenous peroxidases. Sections were subsequently washed three times with PBS and blocked using 5% (v/v) normal goat serum (Vector Laboratories), 0.3% Triton X-100 in PBS. Primary antibody against Iba1 (rabbit polyclonal, 1:400, Wako, #019-19741) was diluted in a buffer containing 2.5% (v/v) normal goat serum, 0.3% Triton X-100 and incubated overnight at 4° C. On the following day, samples were washed three times (10 minutes each) with PBS. The primary antibody was detected using a biotinylated secondary antibody (1:200) and VECTASTAIN Elite ABC HRP kit (Vector Laboratories), and developed with DAB (Vector Laboratories), following the provider's instructions. Sections were dehydrated in a series of graded ethanol, cleared in xylene, and cover-slipped with Cytoseal-XYL xylene-based mounting medium (Thermo Fisher Scientific). Sections were imaged using a light microscope (TE360 Eclipse; Nikon, Japan) at 10× magnification. The Iba1-positive cell area (area occupied by Iba1-positive cells divided by the total area) was quantified for each spinal cord section using ImageJ software (Voxel counter plugin, NIH, USA). Two to three sections were analyzed per mouse. […]

[7] = target: G-protein-coupled receptor 35 (GPR35) (Homo sapiens, UniProt Q9HC97); settings: cited from earlier work
alpha-synuclein peptides = alpha-synuclein peptides (Homo sapiens, UniProt P37840); settings: cited from earlier work

G-protein-coupled receptor 35 (GPR35), sequence (Q9HC97 whole entry, species assumed): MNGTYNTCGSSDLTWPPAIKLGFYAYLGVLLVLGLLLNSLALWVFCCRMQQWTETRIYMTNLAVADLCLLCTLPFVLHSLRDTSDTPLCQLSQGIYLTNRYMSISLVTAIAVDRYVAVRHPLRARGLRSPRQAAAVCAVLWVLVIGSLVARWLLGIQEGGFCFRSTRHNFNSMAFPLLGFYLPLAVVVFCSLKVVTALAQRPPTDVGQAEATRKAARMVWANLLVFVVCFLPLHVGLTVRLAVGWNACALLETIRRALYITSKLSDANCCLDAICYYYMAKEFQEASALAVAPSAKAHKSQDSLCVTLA

**Q.** For `O=C(O)c1cc(=O)c2c(OCC(O)COc3cccc4oc(C(=O)O)cc(=O)c34)cccc2o1` [cromolyn, cromolyn sodium], which body weight ([1]; 6.3 mg/kg i.p. once daily 5 days per week from P60, overall) is on record?
**A.** did not impact body weight

**Q.** What about the body weight ([1]; 6.3 mg/kg i.p., all mice, at P130) of the same molecule?
**A.** significant improvement in body weight

**Q.** And the rotarod performance (SOD1^G93A mouse model [2])?
**A.** no difference in rotarod performance

**Q.** And the “median age of onset (age at paresis onset)” value (SOD1^G93A mouse model [3]; TgSOD1-Cromolyn group, all mice, 6.3 mg/kg i.p., vehicle group 99 days)?
**A.** 107 days

**Q.** What about the “onset of motor symptoms as measured by age at paresis onset” value (SOD1^G93A mouse model [3]; all TgSOD1 mice, Mantel-Cox test, p<0.0001) of the same molecule?
**A.** significant effect of cromolyn treatment on the onset of motor symptoms

**Q.** What about the “onset of motor symptoms” value (SOD1^G93A mouse model [3]; female mice, Mantel-Cox test, p=0.0009) of the same molecule?
**A.** significant delay in the onset of motor symptoms

**Q.** And the “onset of motor symptoms” value (SOD1^G93A mouse model [3]; male mice, Mantel-Cox test, p=0.0193)?
**A.** significant delay in the onset of motor symptoms

**Q.** And the survival (SOD1^G93A mouse model [4]; all treated mice, p=0.1096)?
**A.** did not have a significant effect on survival

**Q.** And the survival (SOD1^G93A mouse model [4]; female mice, p=0.01)?
**A.** significant effect of treatment on female survival

**Q.** And the survival (SOD1^G93A mouse model [4]; male mice alone, p<0.8831)?
**A.** did not have a significant effect on survival

**Q.** And the “motor neuron survival (lumbar spinal cord motor neuron counts)” value [5]?
**A.** significantly increased

**Q.** And the “percentage of Iba1-positive cell area in the lumbar spinal cord” value [6]?
**A.** no significant change

**Q.** What about the “agonism of GPR35” value [7] of the same molecule?
**A.** potent agonist

**Q.** What about the “binding to alpha-synuclein peptides and polymerization” value (alpha-synuclein peptides) of the same molecule?
**A.** inhibiting their polymerization to higher order aggregates
